# Measurements reported in PubChem BioAssay (NCI).
#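 Abbreviation: GI50, concentration required for 50% inhibition of growth. At the TGI there is no net growth.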
# Test system: RXF 393 renal
# Assay: inhibition of tumour cell growth, NCI panel, 384-well format
Structure (SMILES),GI50 [µM],TGI [µM]
COc1cc2nccc(Oc3ccc(NC(=O)C4(C(=O)Nc5ccc(F)cc5)CC4)cc3)c2cc1OC,2.73,5.49
O=C(Nc1cccc(C(F)(F)F)c1)Nc1cc(S(=O)(=O)NC2CC2)ccc1-c1ccsc1,3.28,12.1

# Test system: SK-OV-3 ovarian
# Assay: as above
Structure (SMILES),GI50 [µM],TGI [µM]
CN(C)C(=O)c1cc2cnc(Nc3ccc(N4CCNCC4)cn3)nc2n1C1CCCC1,> 80.2,> 100
COc1cc2nccc(Oc3ccc(NC(=O)C4(C(=O)Nc5ccc(F)cc5)CC4)cc3)c2cc1OC,4.97,15.8
O=C(Nc1cccc(C(F)(F)F)c1)Nc1cc(S(=O)(=O)NC2CC2)ccc1-c1ccsc1,7.67,19.8

# Test system: UO-31 renal
# Assay: as above
Structure (SMILES),GI50 [µM],TGI [µM]
CN(C)C(=O)c1cc2cnc(Nc3ccc(N4CCNCC4)cn3)nc2n1C1CCCC1,13.8,> 100
COc1cc2nccc(Oc3ccc(NC(=O)C4(C(=O)Nc5ccc(F)cc5)CC4)cc3)c2cc1OC,3.16,9.08
O=C(Nc1cccc(C(F)(F)F)c1)Nc1cc(S(=O)(=O)NC2CC2)ccc1-c1ccsc1,4.17,14.9

# Test system: RPMI-8226 leukemia
# Assay: as above
Structure (SMILES),GI50 [nM],TGI [µM]
CN(C)C(=O)c1cc2cnc(Nc3ccc(N4CCNCC4)cn3)nc2n1C1CCCC1,607,27.4
COc1cc2nccc(Oc3ccc(NC(=O)C4(C(=O)Nc5ccc(F)cc5)CC4)cc3)c2cc1OC,3090,7.73
O=C(Nc1cccc(C(F)(F)F)c1)Nc1cc(S(=O)(=O)NC2CC2)ccc1-c1ccsc1,1880,3.36

# Test system: HCT-15 colon
# Assay: as above
Structure (SMILES),GI50 [µM],TGI [µM]
CN(C)C(=O)c1cc2cnc(Nc3ccc(N4CCNCC4)cn3)nc2n1C1CCCC1,28.8,> 75.4
COc1cc2nccc(Oc3ccc(NC(=O)C4(C(=O)Nc5ccc(F)cc5)CC4)cc3)c2cc1OC,3.22,10.4
O=C(Nc1cccc(C(F)(F)F)c1)Nc1cc(S(=O)(=O)NC2CC2)ccc1-c1ccsc1,3.49,12.5

# Test system: HS 578T breast
# Assay: as above
Structure (SMILES),GI50 [nM],TGI [µM]
CN(C)C(=O)c1cc2cnc(Nc3ccc(N4CCNCC4)cn3)nc2n1C1CCCC1,33000,> 58.5
COc1cc2nccc(Oc3ccc(NC(=O)C4(C(=O)Nc5ccc(F)cc5)CC4)cc3)c2cc1OC,1960,6.4
O=C(Nc1cccc(C(F)(F)F)c1)Nc1cc(S(=O)(=O)NC2CC2)ccc1-c1ccsc1,2870,7.27

# Test system: NCI-H226 lung
# Assay: as above
Structure (SMILES),GI50 [µM],TGI [µM]
CN(C)C(=O)c1cc2cnc(Nc3ccc(N4CCNCC4)cn3)nc2n1C1CCCC1,8.83,58.1
COc1cc2nccc(Oc3ccc(NC(=O)C4(C(=O)Nc5ccc(F)cc5)CC4)cc3)c2cc1OC,1.41,4.74
O=C(Nc1cccc(C(F)(F)F)c1)Nc1cc(S(=O)(=O)NC2CC2)ccc1-c1ccsc1,4.75,14.7

# Test system: SR leukemia
# Assay: as above
Structure (SMILES),GI50 [nM],TGI [nM]
CN(C)C(=O)c1cc2cnc(Nc3ccc(N4CCNCC4)cn3)nc2n1C1CCCC1,507,1970
COc1cc2nccc(Oc3ccc(NC(=O)C4(C(=O)Nc5ccc(F)cc5)CC4)cc3)c2cc1OC,2950,4490
O=C(Nc1cccc(C(F)(F)F)c1)Nc1cc(S(=O)(=O)NC2CC2)ccc1-c1ccsc1,863,2190

# Test system: NCI-H460 NSCLC
# Assay: as above
Structure (SMILES),GI50 [µM],TGI [µM]
CN(C)C(=O)c1cc2cnc(Nc3ccc(N4CCNCC4)cn3)nc2n1C1CCCC1,12.3,> 61.5
COc1cc2nccc(Oc3ccc(NC(=O)C4(C(=O)Nc5ccc(F)cc5)CC4)cc3)c2cc1OC,3.14,9.27
O=C(Nc1cccc(C(F)(F)F)c1)Nc1cc(S(=O)(=O)NC2CC2)ccc1-c1ccsc1,2.4,5.08

# Test system: A498 renal
# Assay: as above
Structure (SMILES),GI50 [µM],TGI [µM]
CN(C)C(=O)c1cc2cnc(Nc3ccc(N4CCNCC4)cn3)nc2n1C1CCCC1,23.9,45.1
COc1cc2nccc(Oc3ccc(NC(=O)C4(C(=O)Nc5ccc(F)cc5)CC4)cc3)c2cc1OC,3.29,12.2
O=C(Nc1cccc(C(F)(F)F)c1)Nc1cc(S(=O)(=O)NC2CC2)ccc1-c1ccsc1,2.86,8.34

# Test system: UACC-257 melanoma
# Assay: as above
Structure (SMILES),GI50 [µM],TGI [µM]
CN(C)C(=O)c1cc2cnc(Nc3ccc(N4CCNCC4)cn3)nc2n1C1CCCC1,47.6,> 69.7
COc1cc2nccc(Oc3ccc(NC(=O)C4(C(=O)Nc5ccc(F)cc5)CC4)cc3)c2cc1OC,4.62,12.6
O=C(Nc1cccc(C(F)(F)F)c1)Nc1cc(S(=O)(=O)NC2CC2)ccc1-c1ccsc1,2.89,8.51

# Test system: NCI-H322M lung
# Assay: as above
Structure (SMILES),GI50 [µM],TGI [µM]
CN(C)C(=O)c1cc2cnc(Nc3ccc(N4CCNCC4)cn3)nc2n1C1CCCC1,21.3,59.5
COc1cc2nccc(Oc3ccc(NC(=O)C4(C(=O)Nc5ccc(F)cc5)CC4)cc3)c2cc1OC,3.36,16
O=C(Nc1cccc(C(F)(F)F)c1)Nc1cc(S(=O)(=O)NC2CC2)ccc1-c1ccsc1,5.66,17.2
